Literature values, collected in patent publication US12612577B2, “Perfumed compositions, process of preparing thereof and uses” (MINASOLVE SAS, priority 2019, dated 2026).

Tested on: bacteria and fungi
Details: against bacteria and fungi

Question: Which “minimum inhibitory concentration (MIC)” value does the source give for `CCCC(O)CO` (stereo not shown) [1,2-pentanediol] here?
Answer: 5%
